Measured values as given in article PMC10669340, “Bioactive Compounds from an Endophytic Pezicula sp. Showing Antagonistic Effects against the Ash Dieback Pathogen” (Biomolecules, 2023).
≈ marks a conversion by molar mass, not a printed value. Entries after “also recorded” stand apart in the source; their conditions may differ. Like-named read-outs stand apart in the source and are kept apart here. One block for each compound: values may come before it.

Key:
[1] = system: Acinetobacter baumannii DSM 30008; assay: Antimicrobial serial dilution assay (MIC); type: cell-based; details: n.i.: no inhibition
Procedure: (§1) The antimicrobial activity (minimum inhibitory concentration, MIC) of the compounds was determined against Acinetobacter baumannii DSM 30008, Bacillus subtilis DSM 10, Chromobacterium violaceum DSM 30191, Escherichia coli DSM 1116, Mycobacterium smegmatis ATCC 700084, Pseudomonas aeruginosa PA14, Staphylococcus aureus DSM 346, Candida albicans DSM1665, Mucor hiemalis DSM 2656, Pichia anomala DSM 6766, Rhodotorula glutinis DSM 10134 and Schizosaccharomyces pombe DSM 70572 in a serial dilution assay as previously described.

Bacillus subtilis DSM 10 = assay: Antimicrobial serial dilution assay (MIC); type: cell-based
Procedure: as §1

Candida albicans DSM1665 = assay: Antimicrobial serial dilution assay (MIC); type: cell-based; details: n.i.: no inhibition
Procedure: as §1

[2] = system: Chromobacterium violaceum DSM 30191; assay: Antimicrobial serial dilution assay (MIC); type: cell-based
Procedure: as §1

[3] = system: Escherichia coli DSM 1116; assay: Antimicrobial serial dilution assay (MIC); type: cell-based; details: n.i.: no inhibition
Procedure: as §1

Mucor hiemalis DSM 2656 = assay: Antimicrobial serial dilution assay (MIC); type: cell-based
Procedure: as §1

[4] = system: Mycobacterium smegmatis ATCC 700084; assay: Antimicrobial serial dilution assay (MIC); type: cell-based; details: Mycolicibacterium smegmatis
Procedure: as §1

Pichia anomala DSM 6766 = assay: Antimicrobial serial dilution assay (MIC); type: cell-based; details: Hansenula anomala
Procedure: as §1

[5] = system: Pseudomonas aeruginosa PA14; assay: Antimicrobial serial dilution assay (MIC); type: cell-based; details: n.i.: no inhibition
Procedure: as §1

[6] = system: Rhodotorula glutinis DSM 10134; assay: Antimicrobial serial dilution assay (MIC); type: cell-based
Procedure: as §1

[7] = system: Schizosaccharomyces pombe DSM 70572; assay: Antimicrobial serial dilution assay (MIC); type: cell-based
Procedure: as §1

[8] = system: Staphylococcus aureus DSM 346; assay: Antimicrobial serial dilution assay (MIC); type: cell-based
Procedure: as §1

MTT cytotoxicity assay = type: cell-based; details: read-out: Cytotoxic activity (IC50)
Procedure: (§2) The in vitro cytotoxicity assay was performed using the MTT (3-(4,5-dimethylthiayol-2-yl)-2,5-diphenyltetrazolium bromide) test in 96-well microtiter plates as previously described.

[9] = system: H. fraxineus (isolate RH02-T6-B4-2); assay: Agar disc diffusion assay; type: cell-based, Hymenoscyphus fraxineus; details: for Antifungal activity, inhibition diameter: 6 mm disc, 7 days, 21 °C; for inhibitory effects against H. fraxineus (in words): 50 µg (1) and 20 µg (3) test substance per paper disc
Procedure: The antifungal activity of the isolated compounds against H. fraxineus was assessed by the disc diffusion method using 9 cm diameter petri dishes as previously described […] Three sterile filter paper discs per plate were gently placed on dried potato–dextrose agar. The fungicide nystatin was applied as the positive control (20 and 50 µg/paper disc) and methanol as the negative control (10 µL/paper disc). The test plates were incubated at 21 °C for 7 days, the inhibition diameters were measured, and the activity was evaluated compared to nystatin.
Figure S44: Agar disc (6 mm diam.) diffusion assay of compound CJ-17,572 (1) against H. fraxineus RH02-T6-B4-2, grown in 9-cm petri dishes on agar-based PD
medium with H. fraxineus, N - positive control nystatin, M - negative control methanol, CJ – 1.
Table S1. Antifungal activity of the compounds 1-6. n.i.: no inhibition, n.t.: not tested.
Compounds Amount ( µg/paper disc)
Peziculastatin n.t. n.i. 8 mm
Mycorrhizin A 19 mm 31 mm n.t.
Cryptosporioptide A n.t. n.i. n.i.
Cryptosporioptide B n.t. n.i. 8 mm
Cryptosporioptide C n.t. n.i. n.i.
Nystatin 21 mm 24 mm n.t.

[10] = system: Fraxineus excelsior leaves; assay: Phytotoxicity leaf puncture assay; details: 1 mg/mL in MeOH, 20 µL on punctured leaves, evaluated after 3 days
Procedure: The phytotoxicity of the compounds 1, 3 and 4 was assessed using the leaf puncture assay as described previously. The other compounds could not be evaluated because of the limited quantity.
For this assay, similar leaves of the same Fraxineus excelsior plant were chosen onto which the compounds were applied. The pure compounds were dissolved at 1 mg/mL in MeOH. Then, 20 µL of test samples were applied to the adaxial sides of leaves that had previously been needle punctured. A total of 20 µL of MeOH in distilled water (4%) was applied on the leaves as the negative control and 1 mg/mL macrocidin A [23] as the positive control. Each treatment was repeated three times and then the leaves were placed on moistened paper filters in petri dishes (diameter 9 cm) to prevent the droplets from drying. The experiment was run in duplicate. Leaves were evaluated for the symptoms after 3 days.

[11] = system: panel of bacteria and fungi; assay: Antimicrobial serial dilution assay, whole panel (summary statements); type: cell-based
Procedure: as §1

[12] = system: panel of mammalian cell lines; assay: MTT cytotoxicity assay, panel (summary statements); type: cell-based; details: 4–6 only KB3.1 and L929
Procedure: as §2

Micrococcus luteus = system: Micrococcus luteus; parameters: method as in PMID 24529574; details: cited from earlier work
[13] = system: Mycobacterium diernhoferi; parameters: method as in PMID 24529574; details: cited from earlier work
Nocardia sp. = system: Nocardia sp.; parameters: method as in PMID 24529574; details: cited from earlier work
Nocardioides simplex = system: Nocardioides simplex; parameters: method as in PMID 24529574; details: cited from earlier work
S. aureus = system: S. aureus; parameters: method as in PMID 24529574; details: cited from earlier work
[14] = system: methicillin-resistant S. aureus (MRSA) strain N315e; parameters: method as in PMID 24529574; details: cited from earlier work
[15] = 50 µg/paper disc, n.i.: no inhibition

- Minimum inhibitory concentration (MIC) [1]: n.i.
- MIC (Bacillus subtilis DSM 10; DSM10, Bacillus subtilis DSM 10, n.i.: no inhibition, read-out: Minimum inhibitory concentration (MIC)): 66.6 µg/mL (≈ 236 µM)
- MIC (Candida albicans DSM1665; read-out: Minimum inhibitory concentration (MIC)): 66.6 µg/mL (≈ 236 µM)
- MIC ([2]; DSM30191, n.i.: no inhibition, read-out: Minimum inhibitory concentration (MIC)): 66.6 µg/mL (≈ 236 µM)
- Minimum inhibitory concentration (MIC) [3]: n.i.
- MIC (Mucor hiemalis DSM 2656; DSM2656, Mucor hiemalis DSM 2656, n.i.: no inhibition, read-out: Minimum inhibitory concentration (MIC)): 4.2 µg/mL (≈ 14.9 µM)
- MIC ([4]; ATCC700084, Mycobacterium smegmatis ATCC 700084, n.i.: no inhibition, read-out: Minimum inhibitory concentration (MIC)): 66.6 µg/mL (≈ 236 µM)
- MIC (Pichia anomala DSM 6766; DSM6766, Pichia anomala DSM 6766, n.i.: no inhibition, read-out: Minimum inhibitory concentration (MIC)): 16.6 µg/mL (≈ 58.7 µM)
- Minimum inhibitory concentration (MIC) [5]: n.i.
- MIC ([6]; DSM10134, Rhodotorula glutinis DSM 10134, n.i.: no inhibition, read-out: Minimum inhibitory concentration (MIC)): 8.3 µg/mL (≈ 29.4 µM)
- MIC ([7]; DSM70572, Schizosaccharomyces pombe DSM 70572, n.i.: no inhibition, read-out: Minimum inhibitory concentration (MIC)): 33.3 µg/mL (≈ 118 µM)
- MIC ([8]; DSM346, Staphylococcus aureus DSM 346, n.i.: no inhibition, read-out: Minimum inhibitory concentration (MIC)): 66.6 µg/mL (≈ 236 µM)
SMILES: CC=C(Cl)C1=CC(=O)C23CC2C(C)(C)OC3(O)C1=O (centres unmarked) [Compound 3, Mycorrhizin A]
- IC50 (MTT cytotoxicity assay; human, A431 squamous cell carcinoma cells): 1 µM
- IC50 (MTT cytotoxicity assay; human, A549 lung carcinoma cells): 22 µM
- IC50 (MTT cytotoxicity assay; human, KB3.1 endocervical adenocarcinoma cells, n.c.: no cytotoxicity): 11 µM
- IC50 (MTT cytotoxicity assay; human, MCF-7 breast adenocarcinoma cells): 0.64 µM
- IC50 (MTT cytotoxicity assay; human, PC-3 prostate cancer cells): 11 µM
- IC50 (MTT cytotoxicity assay; human, SKOV-3 ovarian carcinoma cells): 2.4 µM
- IC50 (MTT cytotoxicity assay; mouse, L929 fibroblast cells, n.c.: no cytotoxicity): 3.2 µM
- Antifungal activity, inhibition diameter ([9]; 20 µg/paper disc): 19 mm
- inhibitory effects against H. fraxineus (in words) [9]: strong inhibitory effects
- Antifungal activity, inhibition diameter [9, 15]: 31 mm
- phytotoxic activity, leaf puncture assay [10]: brownish lesions; also recorded: most phytotoxic effects
- antimicrobial activity against the tested microorganisms (in words) [11]: moderate to weak antifungal activity
- cytotoxicity against the tested cell lines (in words) [12]: active against all the tested cell lines

SMILES: C/C=C/[C@@H]1C(C)=C[C@@H]2C[C@H](C)CC[C@H]2[C@]1(C)/C(O)=C1\C(=O)N[C@@H]([C@@H](C)O)C1=O [hymenosetin]
- MIC (Micrococcus luteus): ≤ 1.0 µg/mL
- MIC [13]: ≤ 1.0 µg/mL
- MIC (Nocardia sp.): ≤ 1.0 µg/mL
- MIC (Nocardioides simplex): ≤ 1.0 µg/mL
- MIC (S. aureus): ≤ 1.0 µg/mL
- MIC [14]: ≤ 1.0 µg/mL

SMILES: C[C@H]1CC[C@H]2[C@@H](C=C[C@H](C)[C@]2(C)C(=O)C2=C(O)[C@H]([C@@H](C)O)N(C)C2=O)C1 [Compound 1, CJ-17,572]
- Minimum inhibitory concentration (MIC) [1]: n.i.
- MIC (Bacillus subtilis DSM 10; Bacillus subtilis, DSM10, read-out: Minimum inhibitory concentration (MIC)): 8.3 µg/mL (≈ 23 µM)
- Minimum inhibitory concentration (MIC) (Candida albicans DSM1665): n.i.
- Minimum inhibitory concentration (MIC) ([2]; n.i.: no inhibition): n.i.
- Minimum inhibitory concentration (MIC) [3]: n.i.
- MIC (Mucor hiemalis DSM 2656; Mucor hiemalis, DSM2656, read-out: Minimum inhibitory concentration (MIC)): 4.2 µg/mL (≈ 11.6 µM)
- MIC ([4]; ATCC700084, read-out: Minimum inhibitory concentration (MIC)): 66.6 µg/mL (≈ 184 µM)
- MIC (Pichia anomala DSM 6766; DSM6766, read-out: Minimum inhibitory concentration (MIC)): 33.3 µg/mL (≈ 92.1 µM)
- Minimum inhibitory concentration (MIC) [5]: n.i.
- MIC ([6]; Rhodotorula glutinis, DSM10134, read-out: Minimum inhibitory concentration (MIC)): 66.6 µg/mL (≈ 184 µM)
- MIC ([7]; Schizosaccharomyces pombe, DSM70572, read-out: Minimum inhibitory concentration (MIC)): 33.3 µg/mL (≈ 92.1 µM)
- MIC ([8]; Staphylococcus aureus, DSM346, read-out: Minimum inhibitory concentration (MIC)): 8.3 µg/mL (≈ 23 µM)
- IC50 (MTT cytotoxicity assay; human, A431): 23 µM
- IC50 (MTT cytotoxicity assay; human, A549): 4.4 µM
- IC50 (MTT cytotoxicity assay; human, KB3.1, n.c.: no cytotoxicity): 2.5 µM
- IC50 (MTT cytotoxicity assay; human, MCF-7): 2.7 µM
- IC50 (MTT cytotoxicity assay; human, PC-3): 3.3 µM
- IC50 (MTT cytotoxicity assay; human, SKOV-3): 3.3 µM
- IC50 (MTT cytotoxicity assay; mouse, L929, n.c.: no cytotoxicity): 5 µM
- Antifungal activity, inhibition diameter ([9]; 20 µg/paper disc): 9 mm
- inhibitory effects against H. fraxineus (in words) [9]: strong inhibitory effects
- Antifungal activity, inhibition diameter [9, 15]: 11 mm
- phytotoxic activity, leaf puncture assay [10]: brownish lesions
- antimicrobial activity against the tested microorganisms (in words) [11]: moderate to weak antifungal activity
- cytotoxicity against the tested cell lines (in words) [12]: active against all the tested cell lines
